In US20240262814A1, “MODULATORS OF TREX1” (Constellation Pharmaceuticals, Inc., priority 2021, published 2024):

Tests used:
human TREX1 = target: T1, human TREX1 (Homo sapiens, UniProt Q9NSU2); test: hTREX1 Biochemical Assay (fluorescence, dsDNA substrate degradation); conditions: full length human TREX1, 4 h pre-incubation, 18 h reaction at 25° C.
T1 construct: N-terminally His-Tev tagged full length human TREX1; made in house; host or cells: E. coli
T1 sequence (Q9NSU2 1-314): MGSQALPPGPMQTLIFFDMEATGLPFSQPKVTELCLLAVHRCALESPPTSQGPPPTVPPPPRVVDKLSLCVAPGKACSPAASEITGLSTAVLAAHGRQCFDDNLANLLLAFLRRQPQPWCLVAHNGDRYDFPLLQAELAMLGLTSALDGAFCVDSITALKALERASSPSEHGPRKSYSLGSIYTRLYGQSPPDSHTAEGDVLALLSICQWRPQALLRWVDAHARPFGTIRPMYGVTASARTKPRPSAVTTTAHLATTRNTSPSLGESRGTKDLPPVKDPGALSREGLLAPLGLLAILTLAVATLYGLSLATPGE
Method in brief: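 His-Tev-tagged full-length E. coli-expressed enzyme (4 pM final) preincubated with compound 4 h at 25° C., then 60 nM quenched-fluorophore dsDNA added in Tris pH 7.4, 5 mM MgCl2, 1% DMSO. After 18 h at 25° C., EDTA-quenched; fluorescence 615 nm (ex 570 nm); IC50 from four-parameter fit versus EDTA and no-inhibitor controls.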

mouse TREX1 = target: T2, mouse TREX1 (Mus musculus, UniProt Q91XB0); test: mTREX1 Biochemical Assay (fluorescence, dsDNA substrate degradation); conditions: full length mouse TREX1, 4 h pre-incubation, 18 h reaction at 25° C.
T2 construct: N-terminally His-Tev tagged full length mouse TREX1; made in house; host or cells: E. coli
T2 sequence (Q91XB0 1-314): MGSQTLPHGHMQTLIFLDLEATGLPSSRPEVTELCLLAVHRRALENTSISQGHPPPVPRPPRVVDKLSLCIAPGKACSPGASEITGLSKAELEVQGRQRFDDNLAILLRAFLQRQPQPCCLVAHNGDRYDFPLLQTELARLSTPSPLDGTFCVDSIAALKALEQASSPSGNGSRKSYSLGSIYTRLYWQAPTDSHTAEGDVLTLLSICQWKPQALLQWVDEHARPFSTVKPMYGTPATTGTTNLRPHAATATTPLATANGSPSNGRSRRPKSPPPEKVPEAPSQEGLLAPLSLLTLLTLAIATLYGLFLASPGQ
Method in brief: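 Full-length His-Tev mouse TREX1 (E. coli) was preincubated with compound 4 h at 25 °C, then run 18 h at 25 °C. Finals were 6 pM enzyme, 60 nM TEX615/quencher dsDNA, 1% DMSO, pH 7.4 Tris with 5 mM MgCl2. After EDTA quench, fluorescence was read at 615 nm; IC50 by four-parameter fit against EDTA and no-inhibitor controls.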

human TREX2 = target: T3, human TREX2 (Homo sapiens, UniProt Q9BQ50); test: hTREX2 Biochemical Assay (selectivity hTREX1 vs hTREX2); conditions: biochemical selectivity for hTREX1 vs hTREX2
T3 construct: human TREX2 (residues M44-A279, expressed in E. coli); made in house; host or cells: E. coli
T3 sequence (Q9BQ50 44-279 isoform Q9BQ50-1): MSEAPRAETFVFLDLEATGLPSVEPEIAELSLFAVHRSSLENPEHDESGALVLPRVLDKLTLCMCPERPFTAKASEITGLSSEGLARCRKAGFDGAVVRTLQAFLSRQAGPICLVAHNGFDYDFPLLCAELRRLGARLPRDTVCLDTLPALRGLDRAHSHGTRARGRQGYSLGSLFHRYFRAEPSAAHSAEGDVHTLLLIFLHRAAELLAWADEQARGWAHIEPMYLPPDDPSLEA
Method in brief: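 His-Tev-tagged human TREX2 (M44-A279, E. coli-expressed) preincubated with compound (10-point dose-response) for 4 h at 25 °C in Tris pH 7.4 buffer with 5 mM MgCl2. Reaction then run with 60 nM TEX615/quencher dsDNA and 50 pM enzyme (1% DMSO) for 18 h at 25 °C and EDTA-quenched. Fluorescence read at 615 nm (ex 570 nm); IC50 by four-parameter fit against pre-quenched and no-inhibitor controls.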

Compound | IC50 (human TREX1) [nM] | IC50 (mouse TREX1) [nM] | hTREX1 vs hTREX2 selectivity (human TREX2)
C[C@H](c1nc(C(=O)Nc2cnoc2)c(O)c(=O)n1C)C(c1ccccc1Cl)c1ccccc1Cl (single isomer, unassigned) [Example 15 Isomer 2, 2-(1,1-bis(2-chlorophenyl)propan-2-yl)-5-hydroxy-N-(isooxazol-4-yl)-1-methyl-6-oxo-1,6-dihydropyrimidine-4-carboxamide] | > 100 | > 10 | A (A = <25 fold selective for hTREX1)
CC(c1nc(C(=O)Nc2cnoc2)c(O)c(=O)n1C)C(c1ccccc1)c1ccc(Cl)cc1C#N (single isomer, unassigned) [Example 9 Isomer 1] | 1 to 10 | > 10 | C (C = >50 fold selective for hTREX1)
CC(c1nc(C(=O)Nc2cnoc2)c(O)c(=O)n1C)C(c1ccc(F)c(F)c1)c1ccccc1C#N (single isomer, unassigned) [Example 12 Isomer 1] | 1 to 10 | > 10 | C (C = >50 fold selective for hTREX1)
CC(c1nc(C(=O)Nc2cnoc2)c(O)c(=O)n1C)C(c1ccccc1)c1ccc(F)cc1C#N (single isomer, unassigned) [Example 7 Isomer 2] | > 100 | > 10 | A (A = <25 fold selective for hTREX1)
CC(c1nc(C(=O)Nc2cnoc2)c(O)c(=O)n1C)C(c1ccccc1)c1ccccc1C#N (single isomer, unassigned) [Example 3 Isomer 1] | 1 to 10 | > 10 | B (B = 25 to 50 fold selective for hTREX1)
CC(c1nc(C(=O)Nc2cnoc2)c(O)c(=O)n1C)C(c1cc(F)cc(F)c1)c1ccccc1C#N (single isomer, unassigned) [Example 11 Isomer 2] | 1 to 10 | > 10 | C (C = >50 fold selective for hTREX1)
Cn1c(C(F)(F)C(c2ccccc2)c2ccccc2)nc(C(=O)Nc2cnoc2)c(O)c1=O [Example 19, 2-(1,1-difluoro-2,2-diphenylethyl)-5-hydroxy-N-(isoxazol-4-yl)-1-methyl-6-oxo-1,6-dihydropyrimidine-4-carboxamide] | 10 to 100 | > 10 | B (B = 25 to 50 fold selective for hTREX1)
C[C@H](c1nc(C(=O)Nc2cnoc2)c(O)c(=O)n1C)[C@H](c1ccccc1)c1ccccc1C(F)(F)F (single isomer, unassigned) [Example 14 Isomer 4, 5-Hydroxy-N-(isoxazol-4-yl)-1-methyl-6-oxo-2-(1-phenyl-1-(2-(trifluoromethyl)phenyl)propan-2-yl)-1,6-dihydropyrimidine-4-carboxamide] | 1 to 10 | > 10 | B (B = 25 to 50 fold selective for hTREX1)
CC(c1nc(C(=O)Nc2cnoc2)c(O)c(=O)n1C)C(c1ccc(F)cc1F)c1ccccc1C#N (single isomer, unassigned) [Example 13 Isomer 3] | 10 to 100 | > 10 | B (B = 25 to 50 fold selective for hTREX1)
Cn1c([C@H](C(c2ccccc2)c2ccccc2)C(F)(F)F)nc(C(=O)Nc2cnoc2)c(O)c1=O (single isomer, unassigned) [Example 20 Isomer 2, 5-Hydroxy-N-(isoxazol-4-yl)-1-methyl-6-oxo-2-(1,1,1-trifluoro-3,3-diphenylpropan-2-yl)-1,6-dihydropyrimidine-4-carboxamide] | > 100 | > 10 | A (A = <25 fold selective for hTREX1)
CC(c1nc(C(=O)Nc2cnoc2)c(O)c(=O)n1C)C(c1ccccc1)c1cc(Cl)ccc1C#N (single isomer, unassigned) [Example 8 Isomer 4] | 10 to 100 | > 10 | B (B = 25 to 50 fold selective for hTREX1)
